Experiments:
[1] = system: 4T1 cells; assay: Intracellular stability by HPLC; type: in vitro ADME, Mouse
Experimental: Stability of drugs is vital indexes for anticancer application. The stability of Rhein-DCA conjugate in vitro was performed by dispersing it in 2.5% dimethyl sulfoxide (DMSO)-PBS at room temperature for 0, 2, 6 and 12 h. […] Furthermore, we also quantitatively analyzed the intracellular stability of Rhein-DCA using high-performance liquid chromatography (HPLC). After 4 h of uptake, the intracellular concentration of Rhein-DCA was 0.095 μg/10^6 cells within 4T1 cells.
UV-Vis spectra were used to investigate the stability of Rhein-DCA conjugate. The Rhein-DCA was dispersed in 2.5% DMSO-PBS at room temperature, and the absorption spectrum was monitored at 0, 2, 6 and 12 h. High performance liquid chromatography (HPLC) was used to investigate the intracellular stability of Rhein-DCA conjugate. 4T1 cells were seeded in cell culture dish (diameter of 10 cm) at a density of 2 × 10^6 cells per dish and cultured in the incubator for 24 h. Then the cells were further treated with Rhein-DCA conjugate at a concentration of 11 μg/mL for 4 h. After removing media and washing the cells three times with PBS to remove the residual Rhein-DCA, the cells were incubated for another 2 h. Then, the cells were collected and washed twice with PBS. The cells were suspended in 1 mL methanol to obtain cell lysates by three freeze-thaw. Then the supernatant was collected after centrifugation at 13000 G for 10 min for HPLC analysis. A C18 column was used with methanol / 0.1% H₃PO₄ (83:17) as the mobile phase, flow rate 1.0 mL/min, fluorescence detector with an excitation wavelength of 443 nm and an emission wavelength of 530 nm.

[2] = system: 4T1 tumor metastasis; assay: Lung and liver metastasis (images, H&E); type: in vivo, Balb/c mice; settings: 20 mg/kg oral, 24 days
Experimental: Correspondingly, the lung and liver tissues, which are the most common sites for primary tumor metastasis, were obtained and imaged, and then subjected to H&E staining for histopathological examination. […] The major organs (heart, liver, spleen, lung and kidney) were also excised for photographing and H&E staining. The blood biochemistry indexes, including ALT, AST, CREA and UREA were tested.

With `O=C(OCCOC(=O)C(Cl)Cl)c1cc(O)c2c(c1)C(=O)c1cccc(O)c1C2=O` [Rhein-DCA] the “intracellular concentration after 4 h of uptake” value ([1]; 11 μg/mL, 4 h) was 0.095 μg/10^6 cells, the “residual intracellular concentration after removing drug and incubating another 2 h” value ([1]; 4 h uptake then 2 h drug-free) was 0.080 μg/10^6 cells and the intracellular degradation rate ([1]; within 2 h) was “approximately 15.7%”. For the same compound, the “metastatic lesions in lungs and livers” value [2] was “significantly decreased the number and size of metastatic lesions”.

From PMC12036875, “Mitochondria-targeting natural product rhein conjugated with dichloroacetate as the dual inhibitor of glycolysis and oxidative phosphorylation to off energize cancer cells and induce ROS storm” (Theranostics, 2025)
